According to the NIST ThermoML archive (doi:10.1016/j.fluid.2009.11.030):

Test: excess molar enthalpy (molar enthalpy of mixing); xn = mol fraction of the nth substance listed
Settings: 101.3 kPa, Liquid, Isothermal microcalorimeter

CCOC(=O)CC(=O)OCC [diethyl 1,3-propanedioate] + CC(C)CO
excess molar enthalpy [kJ/mol]
Settings | 288.15 K | 298.15 K | 313.15 K | 328.15 K | 338.15 K | 348.15 K
x1 = 0.0502 | 0.611 | 0.611 | 0.69 | 0.704 | 0.694 | 0.666
x1 = 0.0983 | 1.05 | 1.11 | 1.22 | 1.26 | 1.25 | 1.24
x1 = 0.1494 | 1.397 | 1.499 | 1.657 | 1.674 | 1.701 | 1.696
x1 = 0.2006 | 1.681 | 1.773 | 2.002 | 2.086 | 2.089 | 2.07
x1 = 0.2484 | 1.89 | 2.053 | 2.271 | 2.314 | 2.338 | 2.334
x1 = 0.2989 | 2.06 | 2.247 | 2.46 | 2.565 | 2.55 | 2.561
x1 = 0.3486 | 2.183 | 2.358 | 2.605 | 2.723 | 2.71 | 2.701
x1 = 0.3972 | 2.265 | 2.463 | 2.709 | 2.77 | 2.798 | 2.782
x1 = 0.4484 | 2.314 | 2.504 | 2.737 | 2.825 | 2.82 | 2.812
x1 = 0.4981 | 2.342 | 2.542 | 2.725 | 2.811 | 2.803 | 2.784
x1 = 0.5504 | 2.316 | 2.49 | 2.664 | 2.739 | 2.735 | 2.699
x1 = 0.6006 | 2.23 | 2.401 | 2.57 | 2.604 | 2.585 | 2.582
x1 = 0.6485 | 2.135 | 2.29 | 2.427 | 2.453 | 2.439 | 2.415
x1 = 0.6985 | 1.992 | 2.104 | 2.251 | 2.24 | 2.201 | 2.206
x1 = 0.7508 | 1.767 | 1.907 | 1.998 | 1.971 | 1.927 | 1.934
x1 = 0.8 | 1.531 | 1.634 | 1.701 | 1.662 | 1.624 | 1.609
x1 = 0.8514 | 1.23 | 1.3 | 1.358 | 1.31 | 1.27 | 1.24
x1 = 0.899 | 0.837 | 0.912 | 0.987 | 0.903 | 0.938 | 0.882
x1 = 0.9485 | 0.481 | 0.466 | 0.555 | 0.496 | 0.519 | 0.485

CCOC(=O)CC(=O)OCC [diethyl 1,3-propanedioate] + CCCCCCC
excess molar enthalpy [kJ/mol]
Settings | 288.15 K | 298.15 K | 313.15 K | 328.15 K | 338.15 K | 348.15 K
x1 = 0.0503 | – | – | – | 0.375 | 0.367 | 0.378
x1 = 0.0581 | 0.438 | 0.419 | 0.431 | – | – | –
x1 = 0.1008 | – | 0.716 | 0.717 | 0.747 | 0.727 | 0.726
x1 = 0.1086 | 0.75 | – | – | – | – | –
x1 = 0.1476 | 0.943 | 0.97 | 0.997 | 1.018 | 1.03 | 1.014
x1 = 0.1984 | 1.151 | 1.222 | 1.28 | 1.311 | 1.315 | 1.286
x1 = 0.2495 | 1.31 | 1.456 | 1.514 | 1.568 | 1.548 | 1.526
x1 = 0.3007 | 1.48 | 1.618 | 1.728 | 1.766 | 1.792 | 1.726
x1 = 0.3481 | 1.531 | 1.733 | 1.856 | 1.919 | 1.895 | 1.89
x1 = 0.3997 | 1.584 | 1.786 | 1.934 | 2.02 | 2.026 | 1.984
x1 = 0.4474 | 1.594 | 1.815 | 1.962 | 2.043 | 2.068 | 2.04
x1 = 0.4993 | 1.601 | 1.819 | 1.975 | 2.049 | 2.08 | 2.055
x1 = 0.5474 | 1.596 | 1.81 | 1.948 | 2.024 | 2.054 | 2.013
x1 = 0.5997 | 1.571 | 1.758 | 1.889 | 1.954 | 2 | 1.934
x1 = 0.6481 | 1.517 | 1.696 | 1.812 | 1.854 | 1.884 | 1.84
x1 = 0.7008 | 1.45 | 1.565 | 1.67 | 1.727 | 1.736 | 1.673
x1 = 0.7495 | 1.352 | 1.442 | 1.496 | 1.545 | 1.539 | 1.51
x1 = 0.7985 | 1.2 | 1.256 | 1.26 | 1.348 | 1.331 | 1.299
x1 = 0.8476 | 0.99 | 1.022 | 1.029 | 1.06 | 1.07 | 1.03
x1 = 0.9009 | 0.699 | 0.697 | 0.691 | 0.752 | 0.743 | 0.711
x1 = 0.9504 | 0.371 | 0.373 | 0.371 | 0.434 | 0.393 | 0.366
